# Test results published in patent publication US11654136B2, “Phosphoinositide 3-kinase inhibitor with a zinc binding moiety” (Curis, Inc., priority 2011, dated 2023).
# “Also recorded” adds a separate entry of the source.
# Columns and labels:
# [1] = Pharmacokinetic study in dogs; assay type: in vivo; settings: beagle dogs
# Description: FIG. 4 is a graph of plasma concentration versus time for both oral and iv dosing.
# [2] = system: SU-DHL4 (diffuse large B-cell lymphoma cell line) xenograft tumors; assay: SU-DHL4 xenograft tumor model; assay type: in vivo, nude mice
# Protocol: SU-DHL4 (diffuse large B-cell lymphoma cell line), H2122 (human NSCLC cell line), Daudi (non-Hodgkin's lymphoma cell line), and OPM2 (multiple myeloma tumor cell line) cells were implanted into either nude or Scid (severe […] immune-deficient) mice. […]. […] The control groups were treated with vehicle using the same dosing schedule as the corresponding active group.
# In another study, the Daudi tumor group was dosed at 50 mg/Kg twice a day for five days per week. […] The SU-DHL4 tumor group was dosed at 100 mg/Kg orally or 50 mg/Kg intravenously.
# Tumors were measured during the study period with an electronic caliper, and body weights were measured twice a week. The following formula was used to calculate the tumor volume: […] Percentage of tumor volume change was used to describe compound activity over the treatment period.
# [3] = system: Salmonella typhimurium TA98; assay: Mini-Salmonella/mammalian-microsome reverse mutation assay TA98
# Protocol: The tester strains used in the mutagenicity assay were Salmonella typhimurium tester strains TA98 (for detecting frame-shift reverse mutation) and TA100 (for detecting point reverse mutation). The assay was conducted in both the presence and absence of S9 mixture along with concurrent vehicle (DMSO, 20 μl/well) and positive controls in duplicate using 6-well plates. […] A reproducible two-fold increase (>2× of vehicle control) of revertant colonies over the daily average control value is considered a positive response of gene mutation for each strain.
# 2-nitrofluorene and sodium azide served as the positive controls in the absence of S9 for TA98 and TA100 respectively. 2-Aminoanthracene served as the positive controls in the presence of S9 for TA98 and TA100.
# [4] = system: EGFR, HER2, HER3, and MET; assay: Western blot of receptor tyrosine kinases in H1975 and BT-474 cells; assay type: cell-based; settings: H1975 NSCLC cells and BT-474 breast cancer cells; 16 h
# Protocol: Cell extracts were prepared in the presence of SDS and 2-mercaptoethanol and resolved in polyacrylamide gels. Proteins were transferred to nitrocellulose filter and blotting was done using standard procedures with blocking solutions (Li-Cor Bioscience) containing the indicated primary antibody. Primary antibodies against p-EGFR, EGFR, p-HER2, HER2, p-HER3, HER3, p-MET, MET, p-bRaf, p-cRaf, pMEK, MEK, p-ERK, ERK and tubulin were purchased from Cell Signaling Technology. Secondary antibody conjugated with IRdye 680, 800CW were used and the signal was detected with Li-Cor Odyssey Imager.
compound,measurement,setting,value
"COc1ccc(-c2nc(N3CCOCC3)c3sc(CN(C)c4ncc(C(=O)NO)cn4)cc3n2)cn1 [Compound 1, N-hydroxy-2-(((2-(6-methoxypyridin-3-yl)-4-morpholinothieno[3,2-d]pyrimidin-6-yl)methyl)(methyl)amino)pyrimidine-5-carboxamide]",Area under the Curve,"[1]; IV 5 mg/kg, plasma",2977.47 ng/mL * hr
same,Half-life,"[1]; IV 5 mg/kg, plasma",1.85 h
same,Area under the Curve,"[1]; PO Capsule 5 mg/kg, plasma",450.4 ng/mL * hr
same,Half-life,"[1]; PO Capsule 5 mg/kg, plasma",4.88 h
same,bioavailability,"[1]; dog, plasma, PO Capsule 5 mg/kg",15.1%
same,Cmax,"[1]; dog, IV 5 mg/kg, plasma",6160 ng/mL
same,Cmax,"[1]; dog, PO Capsule 5 mg/kg, plasma",312 ng/mL
same,Plasma levels after oral dosing,[1]; oral 5 mg/kg in enteric capsules,Significant plasma levels
same,Tumor growth,[2]; intravenous (IV) 50 mg/kg,strongly inhibited tumor growth
same,Tumor growth,[2]; orally (PO) 100 mg/kg,strongly inhibited tumor growth
same,Background Lawn TA98,"[3]; +S9, 62.5 μg/well",4/4
same,"Revertants per well TA98, Mean","[3]; +S9, 62.5 μg/well",5
same,"Revertants per well TA98, well 1","[3]; +S9, 62.5 μg/well",4
same,"Revertants per well TA98, well 2","[3]; +S9, 62.5 μg/well",6
same,Background Lawn TA98,"[3]; +S9, 125 μg/well",4/4
same,"Revertants per well TA98, Mean","[3]; +S9, 125 μg/well",5
same,"Revertants per well TA98, well 1","[3]; +S9, 125 μg/well",6
same,"Revertants per well TA98, well 2","[3]; +S9, 125 μg/well",3
same,Background Lawn TA98,"[3]; +S9, 250 μg/well",4/4
same,"Revertants per well TA98, Mean","[3]; +S9, 250 μg/well",7
same,"Revertants per well TA98, well 1","[3]; +S9, 250 μg/well",8
same,"Revertants per well TA98, well 2","[3]; +S9, 250 μg/well",6
same,Background Lawn TA98,"[3]; +S9, 500 μg/well","3,sp/3,sp"
same,"Revertants per well TA98, Mean","[3]; +S9, 500 μg/well",6
same,"Revertants per well TA98, well 1","[3]; +S9, 500 μg/well",6
same,"Revertants per well TA98, well 2","[3]; +S9, 500 μg/well",6
same,Background Lawn TA98,"[3]; +S9, 1000 μg/well","3,mp/3,mp"
same,"Revertants per well TA98, Mean","[3]; +S9, 1000 μg/well",7
same,"Revertants per well TA98, well 1","[3]; +S9, 1000 μg/well",6
same,"Revertants per well TA98, well 2","[3]; +S9, 1000 μg/well",7
same,Mutagenic response TA98,"[3]; presence and absence of S9, up to 1000 μg/well",no evidence of a significant increase in the mean number of revertant colonies; also recorded: did not induce a positive mutagenic response
same,Background Lawn TA98,"[3]; −S9, 62.5 μg/well",4/4
same,"Revertants per well TA98, Mean","[3]; −S9, 62.5 μg/well",4
same,"Revertants per well TA98, well 1","[3]; −S9, 62.5 μg/well",4
same,"Revertants per well TA98, well 2","[3]; −S9, 62.5 μg/well",4
same,Background Lawn TA98,"[3]; −S9, 125 μg/well",4/4
same,"Revertants per well TA98, Mean","[3]; −S9, 125 μg/well",5
same,"Revertants per well TA98, well 1","[3]; −S9, 125 μg/well",4
same,"Revertants per well TA98, well 2","[3]; −S9, 125 μg/well",6
same,Background Lawn TA98,"[3]; −S9, 250 μg/well","4,sp/4,sp"
same,"Revertants per well TA98, Mean","[3]; −S9, 250 μg/well",6
same,"Revertants per well TA98, well 1","[3]; −S9, 250 μg/well",6
same,"Revertants per well TA98, well 2","[3]; −S9, 250 μg/well",5
same,Background Lawn TA98,"[3]; −S9, 500 μg/well","3,sp/3,sp"
same,"Revertants per well TA98, Mean","[3]; −S9, 500 μg/well",4
same,"Revertants per well TA98, well 1","[3]; −S9, 500 μg/well",5
same,"Revertants per well TA98, well 2","[3]; −S9, 500 μg/well",3
same,Background Lawn TA98,"[3]; −S9, 1000 μg/well","3,mp/3,mp"
same,"Revertants per well TA98, Mean","[3]; −S9, 1000 μg/well",5
same,"Revertants per well TA98, well 1","[3]; −S9, 1000 μg/well",4
same,"Revertants per well TA98, well 2","[3]; −S9, 1000 μg/well",5
same,"Levels of phosphorylated and total EGFR, HER2, HER3, and MET",[4],"reduce the levels of phosphorylated and total receptor tyrosine kinases EGFR, HER2, HER3, and MET"
